Drawing on patent publication US8592594B2, “Tetrahydro-quinoline derivatives” (Hoffmann-La Roche Inc., priority 2010, dated 2013), this text covers EC50 for 28 molecules.

The assay concerns recombinant AMPK proteins (α1β1γ1, α2β1γ1, α1(1-335), α1(1-394) or α2(1-394)). The experiment in a line: Scintillation Proximity Assay (SPA), AMPK activation. It is filed as biochemical, human. The settings on record: effective concentration of activator for 50% of maximal enzyme activity; 50 nM AMPK, 2 μM ATP, 2 μM biotin-SAMS, 30° C., 2 hours. As for the experimental part: Recombinant human AMPK α1β1γ1, α2β1γ1 or AMPK α subunit truncations α1(1-335), α1(1-394) and α2(1-394) were constructed, expressed and purified as described previously (Pang, T., Zhang, Z. S., Gu, M., Qiu, B. Y., Yu, L. F., Cao, P. R., Shao, W., Su, M. B., Li, J. Y., Nan, F. J., and Li, J. (2008). Rat liver AMPK heterotrimer enzyme was obtained from Upstate (Billerica, Mass., U.S.A.).
Scintillation Proximity Assay
Before the Scintillation Proximity Assay (SPA) assay, 200 nM recombinant AMPK proteins (α1β1γ1, α2β1γ1, α1(1-335), α1(1-394) or α2(1-394)) were fully phosphorylated as described previously (Pang et al., 2008). SPA reactions were performed in 96-well plates at a final volume of 50 μL containing 20 mM Tris-HCl pH 7.5, 5 mM MgCl2, 1 mM DTT, 2 μM biotin-SAMS, 2 μM ATP, 0.2 μCi/well [γ-^33P]ATP, and various amount of activator. Reactions were initiated by the addition of 50 nM recombinant AMPK proteins to the reaction solutions and incubated at 30° C. for 2 hours. After that, reactions were terminated by the addition of 40 μL stop solution containing 80 μg streptavidin-coated SPA beads per well, 50 mM ED TA, 0.1% Triton X-100 in PBS, pH 7.5 and incubated for 1 hour. Finally, a 160 μL suspension solution containing 2.4 M CsCl, 50 mM EDTA, and 0.1% Triton X-100 in PBS (pH 7.5) was added to the reaction solution to suspend SPA beads completely. SPA signals were determined with a Wallac MicroBeta plate counter (PerkinElmer) 30 min later for calculation of the amount of product formed. The amount of products formed in 2 hour was plotted against activator concentrations to determine the effective concentration of the activator (EC50) required for 50% of maximal enzyme activity.
As usually defined, the EC50 is the midpoint of the concentration-response curve. For `CN(C)C(=O)c1ccc2c(c1)C1(CC1)CC(c1cc(F)ccc1Br)N2` (stereo not shown) [Example 34, 2-(2-Bromo-5-fluoro-phenyl)-spiro(cyclopropane-1,4′-1′,2′,3′,4′-tetrahydroquinoline)-6-carboxylic acid dimethylamide], the EC50 amounted to 2.71 µM.
For `O=C(NC1CCC1)c1ccc2c(c1)C1(CC1)CC(c1cc(F)ccc1Br)N2` (stereo not shown) [Example 35, 2-(2-Bromo-5-fluoro-phenyl)-spiro(cyclopropane-1,4′-1′,2′,3′,4′-tetrahydroquinoline)-6-carboxylic acid cyclobutylamide] the value was 6.88 µM; for `O=C(NC1CCC1)c1ccc2c(c1)C1(CC1)CC(c1cc(Br)ccc1F)N2` (stereo not shown) [Example 36, 2-(5-Bromo-2-fluoro-phenyl)-spiro(cyclopropane-1,4′-1′,2′,3′,4′-tetrahydroquinoline)-6-carboxylic acid cyclobutylamide], 5.63 µM.
`O=C(NC1CC1)c1ccc2c(c1)C1(CC1)CC(c1cc(Cl)ccc1Cl)N2` (stereo not shown) [Example 37, 2-(2,5-Dichloro-phenyl)-spiro(cyclopropane-1,4′-1′,2′,3′,4′-tetrahydroquinoline)-6-carboxylic acid cyclopropylamide]: the EC50 was determined as 13.9 µM.
Next, `CNC(=O)c1ccc2c(c1)C1(CC1)CC(c1cc(Cl)ccc1Cl)N2` (stereo not shown) [Example 38, 2-(2,5-Dichloro-phenyl)-spiro(cyclopropane-1,4′-1′,2′,3′,4′-tetrahydroquinoline)-6-carboxylic acid methylamide]: 2.38 µM.
For `O=C(NC1CCC1)c1ccc2c(c1)C1(CC1)CC(c1cc(Cl)ccc1Cl)N2` (stereo not shown) [Example 39, 2-(2,5-Dichloro-phenyl)-spiro(cyclopropane-1,4′-1′,2′,3′,4′-tetrahydroquinoline)-6-carboxylic acid cyclobutylamide] the value was 4.95 µM; for `O=C(c1ccc2c(c1)C1(CC1)CC(c1cc(Cl)ccc1Cl)N2)N1CCOCC1` (stereo not shown) [Example 40, [2-(2,5-Dichloro-phenyl)-spiro(cyclopropane-1,4′-1′,2′,3′,4′-tetrahydroquinolin)-6-yl]-morpholin-4-yl-methanone], 3.69 µM; for `CC(C)NC(=O)c1ccc2c(c1)C1(CC1)CC(c1cc(Cl)ccc1Cl)N2` (stereo not shown) [Example 41, 2-(2,5-Dichloro-phenyl)-spiro(cyclopropane-1,4′-1′,2′,3′,4′-tetrahydroquinoline)-6-carboxylic acid isopropylamide], 5.17 µM.
For `CS(=O)(=O)N1CCN(C(=O)c2ccc3c(c2)C2(CC2)CC(c2cc(Cl)ccc2Cl)N3)CC1` (stereo not shown) [Example 42, [2-(2,5-Dichloro-phenyl)-spiro(cyclopropane-1,4′-1′,2′,3′,4′-tetrahydroquinolin)-6-yl]-(4-methanesulfonyl-piperazin-1-yl)-methanone] the value was 3.77 µM; for `O=C(NC1CCC1)c1ccc2c(c1)C1(CC1)CC(c1cc(Cl)cc(Cl)c1)N2` (stereo not shown) [Example 43, 2-(3,5-Dichloro-phenyl)-spiro(cyclopropane-1,4′-1′,2′,3′,4′-tetrahydroquinoline)-6-carboxylic acid cyclobutylamide], 5.86 µM.
In the case of `O=C(c1ccc2c(c1)C1(CC1)CC(c1cc(Cl)ccc1F)N2)N1CCOCC1` (stereo not shown) [Example 44, [2-(5-Chloro-2-fluoro-phenyl)-spiro(cyclopropane-1,4′-1′,2′,3′,4′-tetrahydroquinolin)-6-yl]-morpholin-4-yl-methanone], the EC50 came to 3.02 µM.
Next, `CN(C)C(=O)c1ccc2c(c1)C1(CC1)CC(c1cc(Cl)ccc1F)N2` (stereo not shown) [Example 45, 2-(5-Chloro-2-fluoro-phenyl)-spiro(cyclopropane-1,4′-1′,2′,3′,4′-tetrahydroquinoline)-6-carboxylic acid dimethylamide]: 1.76 µM; `O=C(NC1CCC1)c1ccc2c(c1)C1(CC1)CC(c1cc(Cl)ccc1F)N2` (stereo not shown) [Example 46, 2-(5-Chloro-2-fluoro-phenyl)-spiro(cyclopropane-1,4′-1′,2′,3′,4′-tetrahydroquinoline)-6-carboxylic acid cyclobutylamide]: 7.62 µM.
Next, `CC(C)NC(=O)c1ccc2c(c1)C1(CC1)CC(c1cc(Cl)ccc1F)N2` (stereo not shown) [Example 47, 2-(5-Chloro-2-fluoro-phenyl)-spiro(cyclopropane-1,4′-1′,2′,3′,4′-tetrahydroquinoline)-6-carboxylic acid isopropylamide]: 11.4 µM; `O=C(c1ccc2c(c1)C1(CC1)CC(c1cc(F)ccc1Br)N2)N1CCNCC1` (stereo not shown) [Example 48]: 2.1 µM.
Next, `CNC(=O)c1ccc2c(c1)C1(CC1)CC(c1c(C)cc(F)cc1Br)N2` (stereo not shown) [Example 49, 2-(2-Bromo-4-fluoro-6-methyl-phenyl)-spiro(cyclopropane-1,4′-1′,2′,3′,4′-tetrahydroquinoline)-6-carboxylic acid methylamide]: 3.23 µM; `CN(C)C(=O)c1ccc2c(c1)C(C)(C)CC(C(C)(C)c1ccccc1)N2` (stereo not shown) [Example 50, 4,4-Dimethyl-2-(1-methyl-1-phenyl-ethyl)-1,2,3,4-tetrahydro-quinoline-6-carboxylic acid dimethylamide]: 2.87 µM.
With `CN(C)C(=O)c1ccc2c(c1)C1(CCCC1)CC(c1cc(F)ccc1Br)N2` (stereo not shown) [Example 51, 2-(2-Bromo-5-fluoro-phenyl)-spiro(cyclopentane-1,4′-1′,2′,3′,4′-tetrahydroquinoline)-6-carboxylic acid dimethylamide], the EC50 came to 3.58 µM.
For the molecule `O=C(NC1CC1)c1ccc2c(c1)C1(CCCC1)CC(c1cc(F)ccc1Br)N2` (stereo not shown) [Example 52, 2-(2-Bromo-5-fluoro-phenyl)-spiro(cyclopentane-1,4′-1′,2′,3′,4′-tetrahydroquinoline)-6-carboxylic acid cyclopropylamide], the EC50 came to 4.84 µM.
For `CN1CCC(NC(=O)c2ccc3c(c2)C2(CCCC2)CC(c2cc(F)ccc2Br)N3)CC1` (stereo not shown) [Example 53, 2-(2-Bromo-5-fluoro-phenyl)-spiro(cyclopentane-1,4′-1′,2′,3′,4′-tetrahydroquinoline)-6-carboxylic acid (1-methyl-piperidin-4-yl)-amide] the value was 1.38 µM; for `O=C(NC1CCC1)c1ccc2c(c1)C1(CCCC1)CC(c1cc(F)ccc1Br)N2` (stereo not shown) [Example 54, 2-(2-Bromo-5-fluoro-phenyl)-spiro(cyclopentane-1,4′-1′,2′,3′,4′-tetrahydroquinoline)-6-carboxylic acid cyclobutylamide], 2.61 µM.
For `CNC(=O)c1ccc2c(c1)C1(CCCC1)CC(c1cc(F)ccc1Br)N2` (stereo not shown) [Example 55, 2-(2-Bromo-5-fluoro-phenyl)-spiro(cyclopentane-1,4′-1′,2′,3′,4′-tetrahydroquinoline)-6-carboxylic acid methylamide], the EC50 was found to be 3.7 µM.
For `O=C(NCCO)c1ccc2c(c1)C1(CCCC1)CC(c1cc(F)ccc1Br)N2` (stereo not shown) [Example 56, 2-(2-Bromo-5-fluoro-phenyl)-spiro(cyclopentane-1,4′-1′,2′,3′,4′-tetrahydroquinoline)-6-carboxylic acid (2-hydroxy-ethyl)-amide] the value was 3.38 µM; for `O=C(c1ccc2c(c1)C1(CCCC1)CC(c1cc(F)ccc1Br)N2)N1CCOCC1` (stereo not shown) [Example 57, [2-(2-Bromo-5-fluoro-phenyl)-spiro(cyclopentane-1,4′-1′,2′,3′,4′-tetrahydroquinolin)-6-yl]-morpholin-4-yl-methanone], 2.36 µM; for `CN1CCN(C(=O)c2ccc3c(c2)C2(CCCC2)CC(c2cc(F)ccc2Br)N3)CC1` (stereo not shown) [Example 58, [2-(2-Bromo-5-fluoro-phenyl)-spiro(cyclopentane-1,4′-1′,2′,3′,4′-tetrahydroquinolin)-6-yl]-(4-methyl-piperazin-1-yl)-methanone], 3.74 µM.
For `O=C(NC1COC1)c1ccc2c(c1)C1(CCCC1)CC(c1cc(F)ccc1Br)N2` (stereo not shown) [Example 59, 2-(2-Bromo-5-fluoro-phenyl)-spiro(cyclopentane-1,4′-1′,2′,3′,4′-tetrahydroquinoline)-6-carboxylic acid oxetan-3-ylamide] the value was 11.3 µM; for `CC(C)NC(=O)c1ccc2c(c1)C1(CCCC1)CC(c1cc(F)ccc1Br)N2` (stereo not shown) [Example 60, 2-(2-Bromo-5-fluoro-phenyl)-spiro(cyclopentane-1,4′-1′,2′,3′,4′-tetrahydroquinoline)-6-carboxylic acid isopropylamide], 4.41 µM; for `O=C(NC1CCC1)c1ccc2c(c1)C1(CCCC1)CC(c1cc(Cl)ccc1Cl)N2` (stereo not shown) [Example 61, 2-(2,5-Dichloro-phenyl)-spiro(cyclopentane-1,4′-1′,2′,3′,4′-tetrahydroquinoline)-6-carboxylic acid cyclobutylamide], 5.98 µM.
